Laboratory results taken from patent publication US8815872B2, “Macrocyclics pyrimidines as aurora kinase inhibitors” (Merck Patent GmbH, priority 2008, dated 2014).

Tests used:
Aurora B = Aurora B (Homo sapiens, UniProt Q96GD4); assay: Aurora B enzyme assay (Caliper); assay type: biochemical
Description: (§1) The Aurora and other kinase assays described here were performed on two Caliper Life Sciences systems, the LC3000 and the Desktop Profiler. These provide data on enzyme activity via measurement of the relative amounts of phosphorylated or unphosphorylated fluorescently labelled substrate peptide at the end of an enzymatic reaction. These different states of peptide are resolved by applying a potential difference across the sample. The presence of a charged phosphate group on the product (as opposed to the substrate) causes a different peptide mobility between the two peptides. This is visualized by excitation of a fluorescent label on the substrate and product peptides and represented as peaks within the analysis software.

Aurora A = biological target: T1, Aurora A (Homo sapiens, UniProt O14965); assay: Aurora A enzyme assay (Caliper LC3000 mobility shift); assay type: biochemical
T1 construct: N-terminal GST fusion with full length Aurora A (1-403 amino acids); purchased Carna Biosciences 05-101
T1 sequence (O14965 1-403): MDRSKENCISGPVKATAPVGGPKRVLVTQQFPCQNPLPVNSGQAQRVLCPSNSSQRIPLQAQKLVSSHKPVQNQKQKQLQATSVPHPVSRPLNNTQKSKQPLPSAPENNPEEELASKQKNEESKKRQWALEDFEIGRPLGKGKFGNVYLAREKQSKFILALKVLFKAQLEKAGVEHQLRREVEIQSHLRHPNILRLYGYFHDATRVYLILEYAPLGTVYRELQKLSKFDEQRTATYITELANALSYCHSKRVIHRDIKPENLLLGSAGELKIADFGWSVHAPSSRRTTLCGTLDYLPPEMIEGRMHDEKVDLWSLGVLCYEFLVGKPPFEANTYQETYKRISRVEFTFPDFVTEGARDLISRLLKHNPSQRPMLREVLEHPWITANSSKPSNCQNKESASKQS
Description: as §1
For example, in order to measure inhibitor activity of Aurora A inhibitors in the Caliper Life Sciences LC3000, a TTP Mosquito liquid handling instrument was used to place […] of an appropriate concentration of inhibitor in 100% DMSO (for a dose response curve calculation) into each well of a 384-well plate. To this reaction components were added to a final volume of 25 μl: • 0.067 ng/μl GST-Aurora A (Carna Biosciences 05-101. N-terminal GST fusion with full length Aurora A (1-403 amino acids), accession number NP_940835.1). • 15 μM ATP (Fluka, 02055) • 1 mM DTT (Sigma, D0632) • 1 mM MgC12 (Sigma, M1028) • 1 μM substrate peptide (sequence FITC-LRRASLG-(CONH2), synthesized by Tufts Peptide Synthesis service. • 100 mM HEPES pH 7.5 (Calbiochem, 391338) • 0.015% Brij-35 (Sigma, B4184)
The reaction was incubated for 90 min at 25° C., and then stopped by the addition of 70 μl of Stop buffer (100 mM HEPES pH 7.5, 0.015% Brij-35, 10 mM EDTA (Sigma, E7889)).
The plate was read on a Caliper LC 3000 in an Off-Chip mobility shift assay format, using the following parameters for a 12-sipper chip: screening pressure −1.8 psi, upstream voltage −2700, downstream voltage −1000. These conditions cause unphosphorylated substrate and phosphorylated product peptide to resolve as separate peaks allowing direct measurement of percentage of conversion of substrate to product. The percent conversion was plotted against concentration of inhibitor to produce a sigmoidal dose response curve, from which an IC50 was calculated using XLFit for Microsoft Excel.

MiaPaca2 = assay: Cellular activity MiaPaca2; assay type: cell-based; settings: Homo sapiens, MIA PaCa-2
Description: (§2) The susceptibility of a particular cell to treatment with the compounds according to the invention was determined by in vitro tests. Typically, a culture of the cell was combined with a compound according to the invention at various concentrations for a period of time that was sufficient to allow the active agents to induce cell death or to inhibit migration, usually between about one hour and one week. In vitro testing was carried out using cultivated cells from a biopsy sample. The viable cells remaining after the treatment then were counted.

A549 = assay: Cellular activity A549; assay type: cell-based; settings: Homo sapiens
Description: as §2

Sequence of Aurora B (Q96GD4 whole entry): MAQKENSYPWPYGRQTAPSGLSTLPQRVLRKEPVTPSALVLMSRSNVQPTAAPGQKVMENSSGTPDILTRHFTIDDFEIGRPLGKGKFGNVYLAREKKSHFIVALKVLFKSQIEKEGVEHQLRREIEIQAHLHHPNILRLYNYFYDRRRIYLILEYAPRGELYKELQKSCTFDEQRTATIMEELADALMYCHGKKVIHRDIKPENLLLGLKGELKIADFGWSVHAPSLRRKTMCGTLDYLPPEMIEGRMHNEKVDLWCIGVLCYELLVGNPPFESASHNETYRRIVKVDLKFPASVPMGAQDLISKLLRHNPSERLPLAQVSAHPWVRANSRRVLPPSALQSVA

Compound	IC50 (Aurora B)	IC50 (Aurora A)	IC50 (MiaPaca2)	IC50 (A549)
CN1CCN(c2ccc3cc2C(O)CS(=O)(=O)[C@@H]2C[C@@H]4C[C@H]2[C@@H](Nc2nc(ncc2F)N3)[C@H]4C(N)=O)CC1 (stereo partly drawn)	1 to 100 nM	1 to 100 nM		
CN1CCN(c2ccc3cc2C(=O)CS(=O)(=O)[C@@H]2C[C@@H]4C[C@H]2[C@@H](Nc2nc(ncc2F)N3)[C@H]4C(N)=O)CC1	1000 to 6250 nM	1 to 100 nM		
CN1CCC(c2ccc3cc2OCCS[C@@H]2C[C@@H]4C[C@H]2[C@@H](Nc2nc(ncc2F)N3)[C@H]4C(N)=O)CC1	1 to 100 nM	1 to 100 nM	101 to 1000 nM	101 to 1000 nM
NC(=O)[C@H]1[C@H]2C[C@H]3[C@H]1Nc1nc(ncc1F)Nc1cccc(c1)N(Cc1cccs1)C(=O)CS[C@@H]3C2	1000 to 6250 nM	101 to 1000 nM		
NC(=O)[C@H]1[C@H]2C[C@H]3[C@H]1Nc1nc(ncc1F)Nc1cc(ccc1O)C(=O)CS[C@@H]3C2	1000 to 6250 nM	1000 to 6250 nM		
Nc1ccc(/C=C/NC(=O)[C@H]2[C@H]3C[C@H]4[C@H]2Nc2nc(ncc2F)Nc2cccc(c2)C(=O)CS[C@@H]4C3)cc1	101 to 1000 nM	101 to 1000 nM	> 6250 nM	> 6250 nM
NC(=O)[C@H]1[C@H]2C[C@H]3[C@H]1Nc1nc(ncc1F)Nc1cccc(c1)OCCCS[C@@H]3C2	1 to 100 nM	1 to 100 nM	1000 to 6250 nM	1000 to 6250 nM
NC(=O)[C@H]1[C@H]2C[C@H]3[C@H]1Nc1nc(ncc1F)Nc1ccc(F)c(c1)CC(=O)O[C@@H]3C2	1000 to 6250 nM	1000 to 6250 nM		
NC(=O)[C@H]1[C@H]2C[C@H]3[C@H]1Nc1nc(ncc1F)Nc1cccc(c1)CCC(=O)O[C@@H]3C2	101 to 1000 nM	101 to 1000 nM	1000 to 6250 nM	1000 to 6250 nM
CC(=O)N1Cc2cccc(c2)Nc2ncc(F)c(n2)N[C@@H]2[C@@H]3C[C@@H](C[C@H]3C1)[C@@H]2C(=O)O	> 6250 nM	1000 to 6250 nM		
NC(=O)[C@H]1[C@@H]2C[C@H]3CNS(=O)(=O)c4cccc(c4)Nc4ncc(F)c(n4)N[C@@H]1[C@@H]3C2	1 to 100 nM	1 to 100 nM	1000 to 6250 nM	1000 to 6250 nM
CN1CCN(c2ccc3cc2OCCN[C@@H]2C[C@@H]4C[C@H]2[C@@H](Nc2nc(ncc2F)N3)[C@H]4C(N)=O)CC1	1 to 100 nM	101 to 1000 nM	101 to 1000 nM	101 to 1000 nM
CN1CCN(c2ccc3cc2OCCN(C)[C@@H]2C[C@@H]4C[C@H]2[C@@H](Nc2nc(ncc2F)N3)[C@H]4C(N)=O)CC1	1 to 100 nM	1 to 100 nM		
NC(=O)[C@H]1[C@H]2C[C@H]3[C@H]1Nc1nc(ncc1F)Nc1ccc(F)c(c1)CC(=O)N[C@@H]3C2	1 to 100 nM	1 to 100 nM	1000 to 6250 nM	1000 to 6250 nM
NC(=O)[C@H]1[C@H]2C[C@H]3[C@H]1Nc1nc(ncc1F)Nc1cccc(c1)NC(=O)CN[C@@H]3C2	101 to 1000 nM	1000 to 6250 nM		
CN1CCN(c2ccc3cc2NC(=O)CN[C@@H]2C[C@@H]4C[C@H]2[C@@H](Nc2nc(ncc2F)N3)[C@H]4C(N)=O)CC1	1 to 100 nM	1 to 100 nM	1000 to 6250 nM	1000 to 6250 nM
NC(=O)[C@H]1[C@H]2C[C@H]3[C@H]1Nc1nc(ncc1F)Nc1cccc(c1)CCC(=O)N[C@@H]3C2	101 to 1000 nM	101 to 1000 nM	1000 to 6250 nM	1000 to 6250 nM
NC(=O)[C@H]1[C@H]2C[C@H]3[C@H]1Nc1nc(ncc1F)Nc1cccc(c1)CCN[C@@H]3C2	1 to 100 nM	101 to 1000 nM	1000 to 6250 nM	1000 to 6250 nM
NC(=O)[C@H]1[C@H]2C[C@H]3[C@H]1Nc1nc(ncc1F)Nc1cccc(c1)C(O)CN[C@@H]3C2 (stereo partly drawn)	1 to 100 nM	101 to 1000 nM	1000 to 6250 nM	1000 to 6250 nM
NC(=O)[C@H]1[C@H]2C[C@H]3[C@H]1Nc1nc(ncc1F)Nc1cccc(c1)CS(=O)(=O)N[C@@H]3C2	101 to 1000 nM	101 to 1000 nM		
NC(=O)[C@H]1[C@H]2C[C@H]3[C@H]1Nc1nc(ncc1F)Nc1cccc(c1)COCc1cn(nn1)[C@@H]3C2		1 to 100 nM	1000 to 6250 nM	1000 to 6250 nM
NC(=O)[C@H]1[C@H]2C[C@H]3[C@H]1Nc1nc(ncc1F)Nc1cccc(c1)S(=O)(=O)NC(=O)N[C@@H]3C2		101 to 1000 nM		
